From US20060035838A1, “Drug therapy for celiac sprue” (The Board of Trustees of the Leland Stanford Junior …, priority 2002, published 2006)
Where two headings read alike, the source gives them in different places. Blank lines part the entries; values can stand above or below the molecule they belong to. *1 amine or outer side, *2 acyl side, *3 side chain or, on linkers, in order; H or OH if unused. Where a SMILES comes first, the peptide text is derived from it. [ ]: non-standard residue; d: D form. X1 = O=C([C@@H](N[*:1])[C@@H]1CC(Cl)=NO1)[*:2]; DON = [N-]=[N+]=CC(=O)CC[C@H](N)C(=O)O

Columns and labels:
[1] = target: T1, recombinant human tissue transglutaminase (Homo sapiens, UniProt P21980); experiment: Inhibition of tissue transglutaminase (residual tTG activity, glutamate dehydrogenase coupled assay); type: biochemical; parameters: made in house
T1 sequence (P21980 1-687): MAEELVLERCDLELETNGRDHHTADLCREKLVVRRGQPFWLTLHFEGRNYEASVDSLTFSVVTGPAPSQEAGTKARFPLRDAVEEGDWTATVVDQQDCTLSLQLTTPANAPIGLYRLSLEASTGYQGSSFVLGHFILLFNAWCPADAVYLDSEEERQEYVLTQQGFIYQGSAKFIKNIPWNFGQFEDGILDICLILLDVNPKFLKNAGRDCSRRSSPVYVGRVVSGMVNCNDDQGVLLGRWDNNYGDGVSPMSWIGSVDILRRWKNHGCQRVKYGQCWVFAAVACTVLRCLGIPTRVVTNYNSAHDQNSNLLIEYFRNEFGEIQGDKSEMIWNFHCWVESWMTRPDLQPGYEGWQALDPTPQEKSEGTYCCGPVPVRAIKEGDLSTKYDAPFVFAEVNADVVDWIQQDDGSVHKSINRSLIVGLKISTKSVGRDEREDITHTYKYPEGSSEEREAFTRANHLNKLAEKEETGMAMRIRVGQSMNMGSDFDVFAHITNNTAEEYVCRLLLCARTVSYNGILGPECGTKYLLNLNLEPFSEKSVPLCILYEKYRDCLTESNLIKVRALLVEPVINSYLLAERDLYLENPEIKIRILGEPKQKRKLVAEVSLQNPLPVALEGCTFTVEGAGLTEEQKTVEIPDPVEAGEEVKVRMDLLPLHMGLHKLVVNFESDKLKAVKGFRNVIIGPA

[2] = target: T1, recombinant human tissue transglutaminase; experiment: Catalysis of reactive glutamine substrates by tissue transglutaminase; conditions: read-out: KM (reactive motif Gln); X = Gln, substrate
[3] = substrate: NCCc1c[nH]cn1; experiment: purified protein, by the assay type; conditions: other: nucleophilic amine co-substrate
[4] = substrate: CC(=O)N1CCC[C@H]1C(=O)N[C@@H](CCC(N)=O)C(=O)N1CCC[C@H]1C(=O)N[C@@H](CCC(N)=O)C(=O)N[C@@H](CC(C)C)C(=O)N1CCC[C@H]1C(=O)N[C@@H](Cc1ccccc1)C(N)=O; experiment: purified protein, by the assay type; conditions: other: X = Gln, substrate; pH 7.1; 30.0 °C
[5] = substrate: CC(C)C[C@H](NC(=O)[C@H](CCC(N)=O)NC(=O)[C@@H]1CCCN1C(=O)[C@H](CCC(N)=O)NC(=O)[C@@H]1CCCN1)C(=O)N1CCC[C@H]1C(=O)N[C@@H](Cc1ccc(O)cc1)C(=O)O; experiment: purified protein, by the assay type; conditions: other: X = Gln, substrate; pH 7.1; 30.0 °C
[6] = Table 3, sulfonamides and sulfonyl hydrazides, competitive inhibition constant, read-out: inhibition constant
[7] = X = acivicin, 200 mM MOPS pH 7.1, 30° C.

Molecule: N[C@H](C(=O)O)[C@@H]1CC(Cl)=NO1 [H—X—OH, X=Aci, acivicin, reference compound]
- kinh/KI (reactive motif Aci) ([1]; X = acivicin): 0.17 min^−1M^−1
- kinh (reactive motif Aci) [1, 7]: 0.015 min⁻¹
- Ki ([1]; X = acivicin, 200 mM MOPS pH 7.1, 30° C., read-out: KI (reactive motif Aci)): 87 mM

Molecule: [N-]=[N+]=CC(=O)CC[C@H](N)C(=O)O [H—X—OH, X=DON, 6-diazo-5-oxo-norleucine, reference compound]
- kinh (reactive motif DON) ([1]; X = 6-diazo-5-oxo-norleucine): 0.025 min⁻¹
- kinh/KI (reactive motif DON) ([1]; X = 6-diazo-5-oxo-norleucine): 0.2 min^−1M^−1

Molecule: CC(C)C[C@H](NC(=O)[C@@H](NC(=O)[C@@H]1CCCN1C(=O)[C@H](CCC(N)=O)NC(=O)[C@@H]1CCCN1)[C@@H]1CC(Cl)=NO1)C(=O)N1CCC[C@H]1C(=O)N[C@@H](Cc1ccc(O)cc1)C(=O)O [PQP—X—LPY, X=Aci, Pro-Gln-Pro-Aci-Leu-Pro-Tyr] (H-PQP[X1]LPY-OH; C-terminus assumed)
- kinh/KI (reactive motif Aci) ([1]; X = acivicin): 18 min^−1M^−1
- kinh (reactive motif Aci) [1, 7]: 0.014 min⁻¹

B1: human tTGase (Homo sapiens) (protein)
chain: T1 sequence (P21980 1-687)
- Km [3]: 40 µM
- kcat [3]: 0.333 s⁻¹

B2: recombinant human tissue transglutaminase (Homo sapiens) (protein)
chain: T1 sequence (P21980 1-687)
- Km [4]: 400 µM
- kcat [4]: 0.667 s⁻¹
- kcat/Km [4]: 1620 M⁻¹ s⁻¹
- Km [5]: 300 µM

Now from value to molecule:

- Ki [1, 6]: 2.2 mM
Molecule: CCOC(=O)[C@H](CCS(=O)(=O)NN)NC(=O)OCc1ccccc1 [(S)-2-Benzyloxycarbonylamino-4-hydrazinosulfonyl-butyric acid ethyl ester]

- Ki [1, 6]: 0.13 mM
Molecule: CCOC(=O)[C@H](CCS(=O)(=O)NNc1ccccc1)NC(=O)OCc1ccccc1 [(S)-2-Benzyloxycarbonylamino-4-phenylhydrazinosulfonyl-butyric acid ethyl ester]

- Ki [1, 6]: 4.4 mM
Molecule: CCOC(=O)[C@H](CCS(N)(=O)=O)NC(=O)OCc1ccccc1 [(S)-2-Benzyloxycarbonylamino-4-sulfamoyl-butyric acid ethyl ester]

- kinh (reactive motif DON) ([1]; X = 6-diazo-5-oxo-norleucine): 0.2 min⁻¹
- kinh/KI (reactive motif DON) ([1]; X = 6-diazo-5-oxo-norleucine): 2.9 × 10^6 min^−1M^−1
Molecule: CC(=O)N1CCC[C@H]1C(=O)N[C@@H](CCC(N)=O)C(=O)N1CCC[C@H]1C(=O)N[C@@H](CCC(=O)C=[N+]=[N-])C(=O)N[C@@H](CC(C)C)C(=O)N1CCC[C@H]1C(=O)N[C@@H](Cc1ccccc1)C(N)=O [Ac—PQP—X—LPF—NH2, X=DON, Ac-Pr-Gl-Pr-DonLeu-Pr-PheNH2] (Ac-PQP[DON]LPF-NH2)

- kinh (reactive motif DON) ([1]; X = 6-diazo-5-oxo-norleucine): 0.12 min⁻¹
- kinh/KI (reactive motif DON) ([1]; X = 6-diazo-5-oxo-norleucine): 890 min^−1M^−1
- Ki ([1]; X = 6-diazo-5-oxo-norleucine, read-out: KI (reactive motif DON)): 0.135 mM
Molecule: COC(=O)C(CCC(=O)C=[N+]=[N-])NC(=O)OCc1ccccc1 (centres unmarked) [Cbz-X—OMe, X=DON]

- Km [2]: > 30000 µM
Molecule: COC(=O)[C@H](CCC(N)=O)NC(=O)OCc1ccccc1 [Cbz-X—OMe, X=Gln]

- Ki ([1]; Table 2, Sab derivatives, reversible competitive inhibition, read-out: KI): 8 mM
Molecule: NS(=O)(=O)CCC(NC(=O)OCc1ccccc1)C(=O)NCC(=O)O (centres unmarked) [Z-Sab-Gly]
